Where two headings read alike, the source gives them in different places.
Key:
B-16 malignant melanoma = B-16 malignant melanoma in C57BL/6 mice, tumor growth after intraperitoneal injection; assay type: in vivo
Method: The compounds were tested by intraperitoneal injections of suspensions of the compounds in an aqueous solution of polyvinyl pyrrolidone.
Mice with malignant melanomas were injected with 20 mg or 40 mg diflubenzuron in suspension or with the suspension medium (blank).
Finally compound 2) was given in doses of 20 mg each on days 0, 1 and 2.
Animals with growing tumors were treated with 100 mg of diflubenzuron alone (suspended in an aqueous solution of polyvinylpyrrolidone) or in combination with a metabolic inhibitor or a metabolic inducer according to the schedule given in Table XI.

melanoma B-16 cells = assay: Malignant melanoma B-16 cells in vitro, cell count by Coulter Counter; assay type: cell-based; settings: Mus musculus; for activity at 200 µg/mL / activity at 300 µg/mL / activity at 50 µg/mL: B16, 48 h; for activity at 200 µg/mL: 200 ug/ml; for activity at 500 µg/mL / activity at 5000 µg/mL: B16, 20 hours incubation, cells counted at 48 hours; for activity at 500 µg/mL: read-out: Percentage of controll cell growth when tested in an amount of 5 x 10^2 µg/ml; for activity at 5000 µg/mL: read-out: Percentage of controll cell growth when tested in an amount of 5 x 10^3 µg/ml; for activity at 300 µg/mL: 300 ug/ml; for activity at 50 µg/mL: 50 ug/ml
Method: Cells of malignant melanomas B-16 grow as a monolayer. The doubling time of this type of cells in a cell--culture is 12 to 16 hours. For this experiment 6 multi-well tissue culture plates having a flat bottom with a surface area of 6 cm^2 appeared to be suitable and have been used.
On day 0 a quantity of melanoma B-16 cells were brought on the cell-culture plates.
The test compounds were sonicated and then incubated without cells for 3 hours at 37°C.
Then the compound to be tested was administered to the plates with melanoma B-16 cells in the desired quantity (each test was done in triplicate). Thereafter the plates were incubated in a C02-incubator for 20 hours at 37°C. Then the incubation was stopped by removing the culture medium containing the test compound, the cells were washed twice, and fresh culture medium was added.
48 Hours after starting the incubation step the number of cells on each plate was measured by means of a microcell Coulter Counter. The results so obtained have been expressed as "percentage of controll cell growth".
In the above experiment the compounds to be tested have been used in the form of a suspension. Since it is not quite clear how much of the active compounds is dissolved, the above results cannot be compared very well.
Therefore a number of compounds has been dissolved in ethanol.

[1] = dissolved in ethanol, read-out: Percentage of controll cell growth (solution)
[2] = suspension, read-out: Percentage of controll cell growth (suspension)
[3] = 20 mg each on days 0, 1, 2, 3 and 4
[4] = 100 mg total, 20 mg each on day 0, 1, 2, 3 and 4
[5] = 10 mg each on days 0, 1, 2, 3 and 4

## Cc1ccc2cc3c(ccc4ccccc43)c3c2c1CC3 [3-methylcholanthrene, 3-Methylcholanthrene, reference compound]
B-16 malignant melanoma; mouse, in vivo
  % change in tumor mass day 1: 122 (6) %
  % change in tumor mass day 2: 223 (6) %
  % change in tumor mass day 3: 364 (6) %
  % change in tumor mass day 4: 417 (6) %
  % change in tumor mass day 5: 363 (6) %

## O=C(NC(=O)c1c(F)cccc1F)Nc1cc(Cl)c(Oc2ncc(C(F)(F)F)cc2Cl)c(Cl)c1 [Compound 2, 1-(2,6-difluorobenzoyl)-3-[3,5-dichloro-4-(3-chloro-5--trifluoromethyl-2-pyridyloxy)phenyl]urea]
B-16 malignant melanoma; 20 mg each on days 0, 1 and 2
  Mean tumor Mass Day 1: 191
Melanoma B-16 cells; [1]
  activity at 200 µg/mL: 72%
Melanoma B-16 cells; [2]
  activity at 200 µg/mL: 114%

## O=C(NC(=O)c1c(F)cccc1F)Nc1ccc(Oc2ccc(Cl)cc2)c(Cl)c1 [Compound 3, 1-(2,6-difluorobenzoyl)-3-[3-chloro-4-(4-chlorophenoxy)phenyl]urea]
B-16 malignant melanoma; [3]
  Mean tumor Mass Day 1: 127
Melanoma B-16 cells; suspension
  activity at 500 µg/mL: 33%
  activity at 5000 µg/mL: 8%

## O=C(NC(=O)c1ccccc1Cl)Nc1ccc(Cl)cc1 [Compound 5, 1-(2-chlorobenzoyl)-3-(4-chlorophenyl)urea]
B-16 malignant melanoma; [3]
  Mean tumor Mass Day 1: 198
Melanoma B-16 cells; suspension
  activity at 500 µg/mL: 98%
  activity at 5000 µg/mL: 86%

## O=C(NC(=O)c1ccccc1Cl)Nc1ccc(OC(F)(F)F)cc1 [Compound 6, l-(2-chlorobenzoyl)-3-(4-trifluoromethoxyphenyl)urea]
B-16 malignant melanoma; [3]
  Mean tumor Mass Day 1: 229
Melanoma B-16 cells; [1]
  activity at 300 µg/mL: 95%
Melanoma B-16 cells; [2]
  activity at 300 µg/mL: 88%

## O=C(NC(=O)c1c(F)cccc1F)Nc1ccc(Cl)cc1O [Compound 7]
B-16 malignant melanoma; [4]
  % change in tumor mass day 1: -23.4 (12) %
  % change in tumor mass day 2: -17.4 (12) %
  % change in tumor mass day 3: 25.1 (12) %
  % change in tumor mass day 4: 74.7 (10) %
  % change in tumor mass day 5: 127 (10) %
  % change in tumor mass on day 11: 699 (10) %
  antitumor effect compared with parent compound diflubenzuron (in words): more effective
Melanoma B-16 cells; [1]
  activity at 50 µg/mL: 39%
  activity at 300 µg/mL: 0%
Melanoma B-16 cells; [2]
  activity at 50 µg/mL: 103%
  activity at 300 µg/mL: 103%

## O=C(NC(=O)c1c(F)cccc1F)Nc1ccc(Cl)c(O)c1 [Compound 8, 1-(2,6-difluorobenzoyl)-3-(4-chloro-3-hydroxyphenyl)urea]
B-16 malignant melanoma; [4]
  % change in tumor mass day 1: 39.5 (12) %
  % change in tumor mass day 2: 52.4 (12) %
  % change in tumor mass day 3: 91.2 (12) %
  % change in tumor mass day 4: 149 (12) %
  % change in tumor mass day 5: 223 (12) %
  % change in tumor mass on day 11: 930 (12) %
  antitumor effect compared with parent compound diflubenzuron (in words): not active at all
Melanoma B-16 cells; [1]
  activity at 300 µg/mL: 0%
Melanoma B-16 cells; [2]
  activity at 300 µg/mL: 63%
Melanoma B-16 cells; suspension
  activity at 500 µg/mL: 51%
  activity at 5000 µg/mL: 53%

## O=C(NC(=O)c1ccccc1Cl)Nc1ccc(OC(F)(F)F)cc1O [Compound 9, 1-(2-chlorobenzoyl)-3-(2-hydroxy-4-trifluoromethoxyphenyl)urea]
Melanoma B-16 cells; suspension
  activity at 500 µg/mL: 100%
  activity at 5000 µg/mL: 70%

## N#Cc1ccc(NC(=O)NC(=O)c2c(F)cccc2F)cc1 [Compound 10, l-(2,6-difluorobenzoyl)-3-(4-cyanophenyl)urea]
B-16 malignant melanoma; [3]
  Mean tumor Mass Day 1: 183

## O=C(NC(=O)c1c(F)cccc1F)Nc1ccc(OC(F)(F)C(F)C(F)(F)F)cc1 (stereo not shown) [Compound 11]
B-16 malignant melanoma; [3]
  Mean tumor Mass Day 1: 193

## O=C(NC(=O)c1c(F)cccc1F)Nc1ccc(O)cc1 [Compound 12, 1-(2,6-difluorobenzoyl)-3-(4 :aydroxyphenyl)urea]
B-16 malignant melanoma; [3]
  Mean tumor Mass Day 1: 148

## O=C(NC(=O)c1c(F)cccc1F)Nc1ccc(C2CCCCC2)cc1 [Compound 13, l-(2,6-difluorobenzoyl)-3-(4-cyclohexylphenyl)urea]
B-16 malignant melanoma; [5]
  Mean tumor Mass Day 1: 205

## O=C(NC(=O)c1c(F)cccc1F)Nc1ccc(Cl)c(Cl)c1 [Compound 15, 1-(2,6-difluorobenzoyl)-3-(3,4-dichlorophenyl)urea]
B-16 malignant melanoma; [3]
  Mean tumor Mass Day 1: 151

## O=C(NC(=O)c1c(Cl)cccc1Cl)Nc1ccc(Cl)cc1 [Compound 17, 1-(2,6-dichlorobenzoyl)-3-(4-chlorophenyl)urea]
B-16 malignant melanoma; [5]
  Mean tumor Mass Day 1: 347

## O=C(NC(=O)c1c(Cl)cccc1Cl)Nc1ccc(C(F)(F)F)cc1 [Compound 18, 1-(2,6-dichlorobenzoyl)-3-(4-trifluoromethylphenyl)urea]
B-16 malignant melanoma; [5]
  Mean tumor Mass Day 1: 314

## O=C(NC(=O)c1ccccc1)Nc1ccc(Cl)cc1 [Compound 19, 1-benzoyl-3-(4-chlorophenyl)urea]
B-16 malignant melanoma; [3]
  Mean tumor Mass Day 1: 159

## O=C(NC(=O)c1c(F)cccc1F)Nc1ccc(C(F)(F)F)cc1O [Compound 20, 1-(2,6-difluorobenzoyl)-3-(2-hydroxy-4-trifluoromethylphenyl)urea]
Melanoma B-16 cells; suspension
  activity at 500 µg/mL: 91%
  activity at 5000 µg/mL: 81%

## O=C(NC(=O)c1ccccc1Cl)Nc1ccc(C(F)(F)F)cc1O [Compound 21, 1-(2-chlorobenzoyl)-3-(2-hydroxy-4-trifluoromethylphenyl)urea]
Melanoma B-16 cells; [1]
  activity at 300 µg/mL: 43%
Melanoma B-16 cells; [2]
  activity at 300 µg/mL: 50%
Melanoma B-16 cells; suspension
  activity at 500 µg/mL: 101%
  activity at 5000 µg/mL: 71%
